Series [1] in a line: in vivo. The note with it: Wistar Han, rat, at 0.6 to 2 µmol/kg.
Series [2] is described as follows: in vivo. The note with it: Wistar Han, rat, lung.
Series [3] can be described thus: in vitro. As to conditions: Wistar Han, rat, lung S9 fraction.
Series [4] in a line: in vivo. As to conditions: Wistar Han, rat, iv.
A short description of series [5]: in vivo. The note with it: Wistar Han, rat, iv. The source holds these as a separate data set.
Series [6] is described as follows: in vitro. As to conditions: rat, plasma.
The nature of series [7]: in vivo. As to conditions: Wistar Han, rat, iv. The source holds these as a separate data set.
A short description of series [8]: in vivo. As to conditions: Wistar Han, rat, urine, iv; at 0.6 to 2 µmol/kg.
Series [9] can be described thus: in vitro. As to conditions: rat, plasma. The source holds these as a separate data set.
Series [10] is described as follows: in vitro. The note with it: human, lung S9 fraction.

The structures appear in SMILES notation. Bounds are passed on as bounds.

The term bioavailability denotes dose-corrected exposure relative to a reference, in per cent. High values mean good availability, low ones poor availability. The term MRT denotes a mean duration of stay, worked out from the concentration-time curve. What is called half-life is the time needed for the level to fall by half in the phase considered. The clearance is the volume of plasma or blood freed of the substance per unit of time. As usually defined, the amount remaining is what is left of the initial amount, in per cent. Low readings indicate more turnover, high ones less turnover. The term Vd denotes the apparent volume that relates the amount in the body to the concentration in plasma or blood. The low end stands for confinement near the circulation, the high end for extensive tissue distribution.

In turn, `CC(=O)N[C@H]1CSCCC(=O)N2CN3CN(C2)C(=O)CCSC[C@H](NC(=O)[C@H](CC(=O)O)NC(=O)[C@H](CCC(=O)O)NC(=O)[C@H](CC(C)C)NC(=O)[C@H](Cc2c[nH]c4ccccc24)NC(=O)[C@H](CCC(N)=O)NC1=O)C(=O)N[C@@H](Cc1c[nH]c2ccccc12)C(=O)N[C@@H](CCCNC(=N)N)C(=O)NCC(=O)N[C@@H](Cc1ccc(F)cc1)C(=O)N[C@H](C(=O)N[C@@H](C)C(N)=O)CSCCC3=O` returned a bioavailability in the series “in vivo [1]” of 3.4%. The same compound had an MRT in “in vivo [2]” of 1.2 h. Moreover, the half-life at 1 h, 10 µM in “in vitro [3]” amounted to 2.4 h. Also, in the series “in vivo [4]”, the half-life amounted to 0.0833 h. The same compound displayed a clearance in the series “in vivo [5]” of 42 mL/min/kg. The compound further registered an amount remaining at 18 h in “in vitro [6]” greater than 50%. Also, the Vd in “in vivo [7]” is 0.3 L/kg.

The compound `CC(=O)N[C@H]1CSCCC(=O)N2CN3CN(C2)C(=O)CCSC[C@H](NC(=O)[C@H](CC(=O)O)NC(=O)[C@H](CCC(=O)O)NC(=O)[C@H](CC(C)(C)C)NC(=O)C(Cc2cn(C)c4ccccc24)NC(=O)[C@H](CCC(N)=O)NC1=O)C(=O)N[C@@H](Cc1cn(C)c2ccccc12)C(=O)N[C@@H](CCCNC(=N)N(C)C)C(=O)NCC(=O)N[C@@H](Cc1ccc(F)cc1)C(=O)N[C@H](C(N)=O)CSCCC3=O` (some centres undefined) yielded a bioavailability in the series “in vivo [1]” of 24.7%. The compound further showed an MRT in “in vivo [2]” of 1.3 h. Further, the dose excreted in the series “in vivo [8]” turned out to be 1%. In addition, in the series “in vivo [4]”, the half-life is 0.433 h. In the series “in vivo [5]”, this compound registered a clearance of 12 mL/min/kg. In the series “in vitro [6]”, this compound yielded an amount remaining at 18 h greater than 50%. In “in vivo [7]”, this compound came in with a Vd of 0.42 L/kg.

For `CC(=O)N[C@H]1CSCCC(=O)N2CN3CN(C2)C(=O)CCSC[C@@H](NC(=O)[C@H](CC(N)=O)NC(=O)[C@H](CCC(=O)O)NC(=O)[C@H](CC(C)C)NC(=O)[C@H](Cc2c[nH]c4ccccc24)NC(=O)[C@H](Cc2c[nH]cn2)NC1=O)C(=O)N[C@@H](Cc1c[nH]c2ccccc12)C(=O)N[C@@H](CCCNC(=N)N)C(=O)NCC(=O)N[C@@H](Cc1ccccc1)C(=O)N[C@H](C(N)=O)CSCCC3=O`, in the series “in vitro [9]”, the amount remaining at 2 h was determined as 90%. Besides, the half-life at 1 h, 10 µM in “in vitro [3]” is less than 0.0833 h. Moreover, in the series “in vitro [10]”, the half-life is less than 5 min.

Regarding `CC(=O)N[C@H]1CSCCC(=O)N2CN3CN(C2)C(=O)CCSC[C@H](NC(=O)[C@H](CC(=O)O)NC(=O)[C@H](CCC(N)=O)NC(=O)[C@H](CC(C)(C)C)NC(=O)[C@H](Cc2cn(C)c4ccccc24)NC(=O)[C@H](C)N(C)C1=O)C(=O)N[C@@H](Cc1cn(C)c2ccccc12)C(=O)N[C@@H](CCCNC(=N)N(C)C)C(=O)NCC(=O)N[C@@H](Cc1ccc(F)cc1)C(=O)N[C@H](C(N)=O)CSCCC3=O`, the half-life at 1 h, 10 µM in “in vitro [3]” turned out to be 2.38 h. Moreover, in the series “in vitro [6]”, the share remaining at 18 h is greater than 50%.

The compound `CC(=O)N[C@H]1CSCCC(=O)N2CN3CN(C2)C(=O)CCSC[C@H](NC(=O)[C@H](CC(N)=O)NC(=O)[C@H](CCC(=O)O)NC(=O)[C@H](CC(C)C)NC(=O)[C@H](Cc2c[nH]c4ccccc24)NC(=O)[C@H](Cc2c[nH]cn2)NC1=O)C(=O)N[C@@H](Cc1c[nH]c2ccccc12)C(=O)N[C@@H](CCCNC(=N)N)C(=O)NCC(=O)N[C@@H](Cc1ccccc1)C(=O)N[C@H](C(N)=O)CSCCC3=O` had a bioavailability in “in vivo [1]” of 33.9%. Further, in “in vivo [2]”, the mean residence time MRT is greater than 24 h. The compound further registered a dose excreted in the series “in vivo [8]” of 64%. This compound gave a half-life in “in vivo [4]” of 1.1 h. The compound also registered a clearance in “in vivo [5]” of 6.3 mL/min/kg. The share remaining at 18 h in the series “in vitro [6]” is greater than 50%. The same compound returned a Vd in the series “in vivo [7]” of 0.6 L/kg.

`CC(=O)N[C@H]1CSCCC(=O)N2CN3CN(C2)C(=O)CCSC[C@@H]2NC(=O)[C@H](CC(=O)O)NC(=O)[C@H](CCC(=O)O)NC(=O)[C@H](CC(C)C)NC(=O)[C@H](CC/C=C/CC[C@H](NC(=O)[C@H](Cc4c[nH]c5ccccc45)NC2=O)C(=O)NCC(=O)N[C@@H](Cc2ccc(F)cc2)C(=O)N[C@H](C(N)=O)CSCCC3=O)NC(=O)[C@H](CCC(N)=O)NC1=O` registered a bioavailability in the series “in vivo [1]” of 5.9%. Besides, the mean residence time MRT in the series “in vivo [2]” was 0.5 h. The compound further displayed a dose excreted in “in vivo [8]” of 0.1%. The half-life at 1 h, 10 µM in the series “in vitro [3]” was found to be 0.8 h. The half-life in the series “in vivo [4]” was 0.05 h. Moreover, in “in vivo [5]”, the clearance is 46 mL/min/kg. For the same compound, the share remaining at 18 h in “in vitro [6]” is greater than 50%. Besides, the Vd in the series “in vivo [7]” was 0.21 L/kg.

As for `CC(=O)N[C@H]1CSCCC(=O)N2CN3CN(C2)C(=O)CCSC[C@H](NC(=O)[C@H](CC(=O)O)NC(=O)[C@H](CCC(N)=O)NC(=O)[C@H](CC(C)(C)C)NC(=O)[C@H](Cc2cccc4ccccc24)NC(=O)[C@H](C)N(C)C1=O)C(=O)N[C@@H](Cc1cn(C)c2ccccc12)C(=O)N[C@@H](CCCNC(=N)N(C)C)C(=O)NCC(=O)N[C@@H](Cc1ccc(F)cc1)C(=O)N[C@H](C(=O)N[C@@H](C)C(N)=O)CSCCC3=O`, the bioavailability in “in vivo [1]” amounted to 23%. For the same compound, the MRT in “in vivo [2]” amounted to 2.4 h. In addition, in “in vivo [8]”, the dose excreted is 0.9%. The same compound displayed a half-life in “in vivo [4]” of 0.75 h. Moreover, the clearance in “in vivo [5]” worked out at 6.4 mL/min/kg. Further, in the series “in vitro [6]”, the amount remaining at 18 h is greater than 50%. In addition, the distribution volume (Vd) in the series “in vivo [7]” is 0.41 L/kg.

In turn, `CC(=O)N[C@H]1CSCCC(=O)N2CN3CN(C2)C(=O)CCSC[C@@H]2NC(=O)[C@H](CC(=O)O)NC(=O)[C@H](CCC(=O)O)NC(=O)[C@H](CC(C)C)NC(=O)[C@H](CCCCCC[C@H](NC(=O)[C@H](Cc4c[nH]c5ccccc45)NC2=O)C(=O)NCC(=O)N[C@@H](Cc2ccc(F)cc2)C(=O)N[C@H](C(N)=O)CSCCC3=O)NC(=O)[C@H](CCC(N)=O)NC1=O` showed a half-life at 1 h, 10 µM in the series “in vitro [3]” of 0.567 h. In “in vitro [6]”, this compound gave an amount remaining at 18 h greater than 50%.

Compound `CC(=O)N[C@H]1CSCCC(=O)N2CN3CN(C2)C(=O)CCSC[C@H](NC(=O)[C@H](CC(=O)O)NC(=O)[C@H](CCC(=O)O)NC(=O)[C@H](CC(C)C)NC(=O)[C@H](Cc2cccc4ccccc24)NC(=O)[C@H](CCC(N)=O)NC1=O)C(=O)N[C@@H](Cc1c[nH]c2ccccc12)C(=O)N[C@@H](CCCNC(=N)N(C)C)C(=O)NCC(=O)N[C@@H](Cc1ccc(F)cc1)C(=O)N[C@H](C(=O)N[C@@H](C)C(N)=O)CSCCC3=O` had a bioavailability in the series “in vivo [1]” of 8.6%. This compound also gave an MRT in the series “in vivo [2]” of 2.2 h. For the same compound, the dose excreted in the series “in vivo [8]” was 0.3%. Moreover, in “in vivo [4]”, the half-life is 0.117 h. In addition, the clearance in “in vivo [5]” came out at 23 mL/min/kg. The compound also displayed a share remaining at 18 h in the series “in vitro [6]” greater than 50%. The Vd in the series “in vivo [7]” stood at 0.23 L/kg.

For `CC(=O)N[C@H]1CSCCC(=O)N2CN3CN(C2)C(=O)CCSC[C@H](NC(=O)[C@H](CC(=O)O)NC(=O)[C@H](CCC(=O)O)NC(=O)[C@H](CC(C)C)NC(=O)[C@H](Cc2cccc4ccccc24)NC(=O)[C@H](CCC(N)=O)NC1=O)C(=O)N[C@@H](Cc1c[nH]c2ccccc12)C(=O)N[C@@H](CCCNC(=N)N(C)C)C(=O)NCC(=O)N[C@@H](Cc1ccc(F)cc1)C(=O)N[C@H](C(N)=O)CSCCC3=O`, in “in vitro [3]”, the half-life at 1 h, 10 µM stood at 1.38 h. In addition, the share remaining at 18 h in “in vitro [6]” was greater than 50%.

In “in vivo [1]”, `CC(=O)N[C@H]1CSCCC(=O)N2CN3CN(C2)C(=O)CCSC[C@H](NC(=O)[C@@H](CC(=O)O)NC(=O)[C@H](CCC(=O)O)NC(=O)[C@H](CC(C)C)NC(=O)[C@H](Cc2c[nH]c4ccccc24)NC(=O)[C@@H](CCC(N)=O)NC1=O)C(=O)N[C@@H](Cc1c[nH]c2ccccc12)C(=O)N[C@@H](CCCNC(=N)N)C(=O)NCC(=O)N[C@@H](Cc1ccc(F)cc1)C(=O)N[C@H](C(=O)O)CSCCC3=O` yielded a bioavailability of 2.3%. The compound further registered an MRT in the series “in vivo [2]” of 1 h. For the same compound, in the series “in vitro [3]”, the half-life at 1 h, 10 µM was 1.12 h. The half-life in “in vivo [4]” amounted to 0.0333 h. The compound further returned a clearance in the series “in vivo [5]” of 45 mL/min/kg. For the same compound, the fraction remaining at 18 h in the series “in vitro [6]” was greater than 50%. In “in vivo [7]”, this compound showed a Vd of 0.13 L/kg.

In the case of `CC(=O)N[C@H]1CSCCC(=O)N2CN3CN(C2)C(=O)CCSC[C@H](NC(=O)[C@H](CC(=O)O)NC(=O)[C@H](CCC(N)=O)NC(=O)[C@H](CC(C)(C)C)NC(=O)[C@H](Cc2cn(C)c4ccccc24)NC(=O)[C@H](CCC(N)=O)NC1=O)C(=O)N[C@@H](Cc1cn(C)c2ccccc12)C(=O)N[C@@H](CCCNC(=N)N(C)C)C(=O)NCC(=O)N[C@@H](Cc1ccc(F)c(Cl)c1)C(=O)N[C@H](C(N)=O)CSCCC3=O`, in “in vivo [1]”, the bioavailability came to 22.5%. The compound further had an MRT in “in vivo [2]” of 1.8 h. Further, in “in vivo [8]”, the dose excreted was found to be 0.8%. The compound further had a half-life at 1 h, 10 µM in the series “in vitro [3]” of 1.53 h. Besides, in “in vivo [4]”, the half-life worked out at 0.583 h. The same compound gave a clearance in “in vivo [5]” of 6.4 mL/min/kg. This compound displayed an amount remaining at 18 h in “in vitro [6]” greater than 50%. The same compound displayed a distribution volume (Vd) in the series “in vivo [7]” of 0.32 L/kg.

Regarding `CC(=O)N[C@H]1CSCCC(=O)N2CN3CN(C2)C(=O)CCSC[C@H](NC(=O)[C@H](CC(=O)O)NC(=O)[C@H](CCC(=O)O)NC(=O)[C@H](CC(C)C)NC(=O)[C@H](Cc2c[nH]c4ccccc24)NC(=O)[C@H](CCC(N)=O)NC1=O)C(=O)N[C@@H](Cc1c[nH]c2ccccc12)C(=O)N[C@@H](CCCNC(=N)N)C(=O)NCC(=O)N[C@@H](Cc1ccc(F)cc1)C(=O)N[C@H](C(N)=O)CSCCC3=O`, the half-life at 1 h, 10 µM in the series “in vitro [3]” came to 0.583 h. For the same compound, the amount remaining at 18 h in the series “in vitro [6]” was greater than 50%.
